From article PMC5809559, “DYRK1A inhibition and cognitive rescue in a Down syndrome mouse model are induced by new fluoro-DANDY derivatives” (Scientific Reports, 2018)

Legend:
[1] = target: T1, DYRK1A catalytic domain (DYRK1A-ΔC) (Rattus norvegicus, UniProt Q63470); assay: In vitro DYRK1A kinase inhibition, UFLC assay with fluorescent peptide substrate; format: biochemical; conditions: IC50, in vitro inhibition of DYRK1A, 3,5-diaryl-7-azaindoles 5a-5g, Fig. 5
T1 construct: The cDNA coding for the catalytic domain (residues 1-502) of rat DYRK1A; 6xHis; made in house; host or cells: E. coli BL21(DE3), pET28

KB cells = assay: KB cell proliferation / cytotoxicity (CellTiter-Blue); format: cell-based; conditions: Homo sapiens, KB, 72 h, 72 h
Description: Cancer cell lines were obtained from the American Type Culture Collection (Rockville, MD, USA) and were cultured according to the supplier’s instructions. Briefly, human KB epidermal carcinoma cells were grown in Dulbecco minimal essential medium (DMEM) containing 4.5 g/L glucose supplemented with 10% fetal calf serum (FCS) and 1% glutamine, 100 UI penicillin, 100 µg/mL streptomycin and 1.5 µg/mL fungizone and maintained at 37 °C in a humidified atmosphere containing 5% CO2. Cell viability was assessed using Promega CellTiter-Blue TM reagent according to the manufacturer’s instructions. Cells were seeded in 96-well plates (5 × 10^3 cells/well) containing […]. After 24 h of culture, the cells were supplemented with […] of the studied compound dissolved in DMSO (less than 0.1% in each preparation). After 72 h of incubation, […] of resazurin was added for 2 h before recording fluorescence (λex = 560 nm, λem = 590 nm) using a Victor microtiter plate fluorimeter (Perkin-Elmer, USA).

[2] = Bioavailability in plasma after i.p. injection (UHPLC-MS/MS); format: in vivo; conditions: mouse, ip, WT mice, 20 mg/kg i.p.
Description: Before undertaking behavioral studies in Ts65Dn mice, the bioavailability of F-DANDY 5a in plasma after peripheral (intraperitoneal – i.p.) injection in mice was determined. […] The sample preparation and analytical protocol were adapted from Bonneau et al.[38],[39]. […] A 30 min interval was thus selected between time of injection and behavioral assessment.
All plasma and brain homogenate extracts were analyzed by an ultra-high performance liquid chromatography (UHPLC) system coupled to a triple-quadrupole mass spectrometer (Dionex Ultimate 3000 RSLC system coupled to a TSQ Vantage EMR, Thermo Scientific, Les Ulis, France). UHPLC separation was performed using a C18 column (HSS T3, 2.1 mm × 150 mm, 1.7 μm, Waters, Guyancourt, France) equipped with a guard column (HSS T3, 2.1 mm × 5 mm, 1.7 μm, Waters, Guyancourt, France) and maintained at 40 °C. The mobile phases were water, 0.1% formic acid (A) and acetonitrile (B). […] A washing step in acetonitrile/isopropanol was added to limit carryover problems. Injection volume was 4 µL and the autosampler was maintained at 6 °C. Ionization was performed with a heated electrospray ionization source in positive mode. The source parameters were set as follows: spray voltage 3350 V, vaporizer temperature 250 °C, sheath gas (N2) pressure 55 psi, auxiliary gas pressure (N2) 25 psi, capillary temperature 350 °C. Analysis was performed under the Selected Reaction Monitoring (SRM) mode using several transitions for each compound at optimized collision energies (see Table SI2 and Figure SI1). […] Data acquisition was performed using ThermoScientific Xcalibur 2.1 software system. All samples were analyzed in triplicate.
Two compounds, V[34] […] Limit of quantification (LOQ) was determined as the lowest point of the calibration curve at 1.6 pg/μL. […] Limit of quantification (LOQ) was determined as the lowest point of the calibration curve at 1.6 pg/mg. […]
Using an optimized Ultra Performance Liquid Chromatography with tandem mass spectrometry (UPLC-MS/MS), compound 5a was subsequently quantified in plasma. […] All samples were analyzed in triplicate.

Q: With Oc1ccc(-c2cnc3[nH]cc(-c4ccc(F)cc4)c3c2)cc1O [Compound 5a, 3-(4-fluorophenyl)-5-(3,4-dihydroxyphenyl)-1H-pyrrolo[2,3-b]pyridine] as the molecule, how does the IC50 [1] read?
A: 20.7 nM

Q: And the inhibition at 10 µM (KB cells; 10^−5 M, read-out: % Growth inhibition 10^−5 M)?
A: < 50%

Q: What about the inhibition at 1 µM (KB cells; 10^−6 M, read-out: % Growth inhibition 10^−6 M) of the same molecule?
A: 0%

Q: What about the concentration at 2.5 h ([2]; after slow decrease over 2.5 hours, read-out: plasma level) of the same molecule?
A: ~50 ng/mL

Q: What about the concentration at 4.4 min ([2]; t = 4.4 min) of the same molecule?
A: 312 ng/mL

Q: What about the concentration at 5.4 min ([2]; t = 5.4 min) of the same molecule?
A: 236 ng/mL
